Test results: ChEMBL document CHEMBL5291721, “A preclinical secondary pharmacology resource illuminates target-adverse drug reaction associations of marketed drugs” (Nat Commun, 2023)

Legend:
[1] = target: cGMP-inhibited 3',5'-cyclic phosphodiesterase 3A (Homo sapiens, UniProt Q14432); type: functional
Adenosine receptor A2a = Adenosine receptor A2a (Homo sapiens, UniProt P29274)
[2] = target: T1, Alpha-1A adrenergic receptor (Homo sapiens, UniProt P35348); type: functional, cell-based
T1 sequence (P35348 whole entry): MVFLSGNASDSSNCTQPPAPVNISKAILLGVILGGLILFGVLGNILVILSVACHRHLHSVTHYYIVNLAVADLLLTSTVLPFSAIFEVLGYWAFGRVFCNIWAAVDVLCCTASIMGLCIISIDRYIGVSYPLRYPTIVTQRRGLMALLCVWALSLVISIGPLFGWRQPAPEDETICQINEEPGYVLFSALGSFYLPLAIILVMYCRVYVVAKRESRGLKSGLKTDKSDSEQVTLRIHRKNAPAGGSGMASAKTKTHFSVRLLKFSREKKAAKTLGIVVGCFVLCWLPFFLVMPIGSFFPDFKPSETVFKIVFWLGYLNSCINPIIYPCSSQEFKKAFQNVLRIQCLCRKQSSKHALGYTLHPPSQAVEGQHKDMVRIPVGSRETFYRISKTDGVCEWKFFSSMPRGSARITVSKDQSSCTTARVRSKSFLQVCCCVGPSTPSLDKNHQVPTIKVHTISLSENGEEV

[3] = target: T2, Gastrin/cholecystokinin type B receptor (Homo sapiens, UniProt P32239)
T2 sequence (P32239 whole entry): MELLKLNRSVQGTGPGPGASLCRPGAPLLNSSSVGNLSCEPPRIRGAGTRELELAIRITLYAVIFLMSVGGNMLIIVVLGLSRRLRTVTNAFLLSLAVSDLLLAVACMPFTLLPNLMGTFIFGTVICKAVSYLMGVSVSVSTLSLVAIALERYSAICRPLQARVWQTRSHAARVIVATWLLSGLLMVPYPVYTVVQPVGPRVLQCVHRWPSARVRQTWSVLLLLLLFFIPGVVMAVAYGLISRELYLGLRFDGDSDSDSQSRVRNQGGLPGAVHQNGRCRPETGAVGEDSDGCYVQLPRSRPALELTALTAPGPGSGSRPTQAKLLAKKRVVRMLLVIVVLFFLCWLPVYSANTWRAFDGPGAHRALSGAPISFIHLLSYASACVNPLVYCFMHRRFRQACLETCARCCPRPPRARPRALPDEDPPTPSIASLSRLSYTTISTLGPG

[4] = target: 5-hydroxytryptamine receptor 2B (Homo sapiens, UniProt P41595); type: functional, cell-based
[5] = target: T3, 5-hydroxytryptamine receptor 1A (Homo sapiens, UniProt P08908); type: functional, cell-based
T3 sequence (P08908 whole entry): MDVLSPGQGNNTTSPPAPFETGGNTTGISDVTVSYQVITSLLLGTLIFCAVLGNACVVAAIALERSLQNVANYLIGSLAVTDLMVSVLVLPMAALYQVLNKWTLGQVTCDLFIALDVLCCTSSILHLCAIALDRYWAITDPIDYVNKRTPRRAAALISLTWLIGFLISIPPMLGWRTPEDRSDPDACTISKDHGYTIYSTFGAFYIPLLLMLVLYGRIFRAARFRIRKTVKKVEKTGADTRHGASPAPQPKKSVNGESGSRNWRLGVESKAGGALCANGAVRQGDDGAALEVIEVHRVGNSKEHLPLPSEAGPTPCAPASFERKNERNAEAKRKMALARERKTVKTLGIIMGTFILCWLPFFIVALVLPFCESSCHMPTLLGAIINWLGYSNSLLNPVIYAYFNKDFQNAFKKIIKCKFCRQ

[6] = target: Neuronal acetylcholine receptor subunit alpha-4 (Homo sapiens, UniProt P43681)
Adenosine receptor A3 = target: T4, Adenosine receptor A3 (Homo sapiens, UniProt P0DMS8)
T4 sequence (P0DMS8 whole entry): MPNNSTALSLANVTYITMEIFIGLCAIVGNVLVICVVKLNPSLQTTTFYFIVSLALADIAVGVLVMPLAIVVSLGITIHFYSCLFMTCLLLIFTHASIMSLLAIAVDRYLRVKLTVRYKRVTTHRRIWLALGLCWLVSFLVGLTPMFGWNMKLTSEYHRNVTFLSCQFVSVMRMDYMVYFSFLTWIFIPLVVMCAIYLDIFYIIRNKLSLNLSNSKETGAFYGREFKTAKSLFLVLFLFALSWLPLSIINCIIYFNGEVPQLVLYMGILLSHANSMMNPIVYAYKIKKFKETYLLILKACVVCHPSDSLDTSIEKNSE

[7] = target: 3',5'-cyclic-AMP phosphodiesterase 4D (Homo sapiens, UniProt Q08499); type: functional
[8] = target: T5, Equilibrative nucleoside transporter 1 (Homo sapiens, UniProt Q99808)
T5 sequence (Q99808 whole entry): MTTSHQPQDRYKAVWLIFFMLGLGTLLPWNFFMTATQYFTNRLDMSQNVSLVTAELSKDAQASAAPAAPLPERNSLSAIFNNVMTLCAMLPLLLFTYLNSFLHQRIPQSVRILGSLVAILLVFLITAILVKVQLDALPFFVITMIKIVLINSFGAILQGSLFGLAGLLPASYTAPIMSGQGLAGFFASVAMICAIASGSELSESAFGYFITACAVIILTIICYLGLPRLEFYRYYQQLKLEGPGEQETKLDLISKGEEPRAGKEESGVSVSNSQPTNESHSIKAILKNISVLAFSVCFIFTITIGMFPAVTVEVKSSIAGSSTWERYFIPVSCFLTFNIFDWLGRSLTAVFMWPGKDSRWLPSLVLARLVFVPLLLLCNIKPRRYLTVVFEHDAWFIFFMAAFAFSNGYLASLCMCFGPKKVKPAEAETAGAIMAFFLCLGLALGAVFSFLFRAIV

[9] = target: Delta-type opioid receptor (Homo sapiens, UniProt P41143)

Measured: AC50
Note: assay procedure not described here.

Delta-type opioid receptor, sequence (P41143 whole entry): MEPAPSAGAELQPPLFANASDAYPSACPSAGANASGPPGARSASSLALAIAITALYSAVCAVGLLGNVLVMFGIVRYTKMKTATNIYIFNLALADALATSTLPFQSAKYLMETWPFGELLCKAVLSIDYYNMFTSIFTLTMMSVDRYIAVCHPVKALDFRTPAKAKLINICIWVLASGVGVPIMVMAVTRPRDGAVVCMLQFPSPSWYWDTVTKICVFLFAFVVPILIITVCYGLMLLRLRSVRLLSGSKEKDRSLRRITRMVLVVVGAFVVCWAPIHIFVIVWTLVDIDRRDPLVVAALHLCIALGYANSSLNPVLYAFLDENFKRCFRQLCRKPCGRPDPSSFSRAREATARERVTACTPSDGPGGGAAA
Neuronal acetylcholine receptor subunit alpha-4, sequence (P43681 whole entry): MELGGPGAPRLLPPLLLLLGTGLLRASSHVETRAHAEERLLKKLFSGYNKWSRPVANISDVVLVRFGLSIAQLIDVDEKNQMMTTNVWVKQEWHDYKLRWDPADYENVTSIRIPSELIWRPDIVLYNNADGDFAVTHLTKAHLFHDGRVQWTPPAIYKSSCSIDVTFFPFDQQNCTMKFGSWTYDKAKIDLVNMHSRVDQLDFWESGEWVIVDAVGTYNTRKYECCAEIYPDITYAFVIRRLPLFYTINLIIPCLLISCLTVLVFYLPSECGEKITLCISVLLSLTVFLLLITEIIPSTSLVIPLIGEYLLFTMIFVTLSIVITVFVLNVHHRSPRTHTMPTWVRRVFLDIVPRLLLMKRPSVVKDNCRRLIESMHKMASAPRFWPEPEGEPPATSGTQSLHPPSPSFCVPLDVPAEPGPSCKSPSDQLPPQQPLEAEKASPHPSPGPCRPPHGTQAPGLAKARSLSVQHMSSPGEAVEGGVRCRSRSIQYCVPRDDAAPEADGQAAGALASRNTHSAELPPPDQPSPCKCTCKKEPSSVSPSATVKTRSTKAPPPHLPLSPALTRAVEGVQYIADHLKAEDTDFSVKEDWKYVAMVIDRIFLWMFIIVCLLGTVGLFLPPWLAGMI
cGMP-inhibited 3',5'-cyclic phosphodiesterase 3A, sequence (Q14432 whole entry): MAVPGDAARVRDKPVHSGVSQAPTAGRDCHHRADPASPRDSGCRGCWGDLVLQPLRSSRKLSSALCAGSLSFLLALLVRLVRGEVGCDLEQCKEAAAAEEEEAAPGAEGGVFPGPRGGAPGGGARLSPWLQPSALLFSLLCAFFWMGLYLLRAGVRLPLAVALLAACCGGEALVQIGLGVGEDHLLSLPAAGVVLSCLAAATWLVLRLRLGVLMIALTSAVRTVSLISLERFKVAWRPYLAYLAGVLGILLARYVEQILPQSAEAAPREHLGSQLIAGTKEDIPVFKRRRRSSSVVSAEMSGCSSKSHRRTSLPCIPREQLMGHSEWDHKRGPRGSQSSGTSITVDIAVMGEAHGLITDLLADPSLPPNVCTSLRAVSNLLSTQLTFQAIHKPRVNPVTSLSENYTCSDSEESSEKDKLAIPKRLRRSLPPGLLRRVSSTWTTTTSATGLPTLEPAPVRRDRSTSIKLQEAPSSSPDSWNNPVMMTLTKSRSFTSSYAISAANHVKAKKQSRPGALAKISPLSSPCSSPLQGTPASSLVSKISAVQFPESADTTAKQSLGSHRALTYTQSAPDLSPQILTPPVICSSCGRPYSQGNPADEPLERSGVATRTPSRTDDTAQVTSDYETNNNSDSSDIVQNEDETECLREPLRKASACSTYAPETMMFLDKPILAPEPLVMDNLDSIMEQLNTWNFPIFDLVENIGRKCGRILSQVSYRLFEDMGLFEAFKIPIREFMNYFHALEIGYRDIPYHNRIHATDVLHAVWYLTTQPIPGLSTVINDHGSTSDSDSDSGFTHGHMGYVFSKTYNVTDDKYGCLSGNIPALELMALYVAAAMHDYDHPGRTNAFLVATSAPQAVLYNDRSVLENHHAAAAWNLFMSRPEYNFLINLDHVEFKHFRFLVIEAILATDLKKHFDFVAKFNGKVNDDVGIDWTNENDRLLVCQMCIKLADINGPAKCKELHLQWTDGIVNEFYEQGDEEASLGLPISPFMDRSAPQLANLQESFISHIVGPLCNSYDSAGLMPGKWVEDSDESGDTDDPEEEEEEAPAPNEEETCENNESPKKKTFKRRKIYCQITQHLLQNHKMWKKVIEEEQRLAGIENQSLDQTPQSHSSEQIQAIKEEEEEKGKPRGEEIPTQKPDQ
Adenosine receptor A2a, sequence (P29274 whole entry): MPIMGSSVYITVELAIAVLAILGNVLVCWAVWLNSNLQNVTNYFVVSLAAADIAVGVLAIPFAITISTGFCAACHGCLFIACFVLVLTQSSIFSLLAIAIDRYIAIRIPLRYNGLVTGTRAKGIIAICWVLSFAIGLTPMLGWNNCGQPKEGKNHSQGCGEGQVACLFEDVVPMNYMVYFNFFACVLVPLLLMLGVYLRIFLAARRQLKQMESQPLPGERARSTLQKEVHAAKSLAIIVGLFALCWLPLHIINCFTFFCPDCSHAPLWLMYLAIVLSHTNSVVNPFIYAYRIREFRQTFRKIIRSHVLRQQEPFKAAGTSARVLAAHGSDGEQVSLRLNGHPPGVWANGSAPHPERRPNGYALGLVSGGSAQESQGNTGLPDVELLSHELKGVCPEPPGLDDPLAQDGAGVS
5-hydroxytryptamine receptor 2B, sequence (P41595 whole entry): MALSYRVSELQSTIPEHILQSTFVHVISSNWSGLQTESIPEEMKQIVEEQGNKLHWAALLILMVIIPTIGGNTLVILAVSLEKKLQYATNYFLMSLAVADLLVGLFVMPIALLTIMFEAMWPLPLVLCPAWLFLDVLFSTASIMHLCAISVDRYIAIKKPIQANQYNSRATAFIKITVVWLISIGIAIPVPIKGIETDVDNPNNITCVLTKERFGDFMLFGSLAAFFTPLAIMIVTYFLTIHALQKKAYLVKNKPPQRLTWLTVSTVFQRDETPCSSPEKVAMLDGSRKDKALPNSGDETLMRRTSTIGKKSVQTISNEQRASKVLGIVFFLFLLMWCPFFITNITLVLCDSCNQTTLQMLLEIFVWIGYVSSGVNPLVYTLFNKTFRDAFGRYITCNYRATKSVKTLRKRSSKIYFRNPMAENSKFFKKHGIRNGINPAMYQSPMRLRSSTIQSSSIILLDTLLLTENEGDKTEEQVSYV
3',5'-cyclic-AMP phosphodiesterase 4D, sequence (Q08499 whole entry): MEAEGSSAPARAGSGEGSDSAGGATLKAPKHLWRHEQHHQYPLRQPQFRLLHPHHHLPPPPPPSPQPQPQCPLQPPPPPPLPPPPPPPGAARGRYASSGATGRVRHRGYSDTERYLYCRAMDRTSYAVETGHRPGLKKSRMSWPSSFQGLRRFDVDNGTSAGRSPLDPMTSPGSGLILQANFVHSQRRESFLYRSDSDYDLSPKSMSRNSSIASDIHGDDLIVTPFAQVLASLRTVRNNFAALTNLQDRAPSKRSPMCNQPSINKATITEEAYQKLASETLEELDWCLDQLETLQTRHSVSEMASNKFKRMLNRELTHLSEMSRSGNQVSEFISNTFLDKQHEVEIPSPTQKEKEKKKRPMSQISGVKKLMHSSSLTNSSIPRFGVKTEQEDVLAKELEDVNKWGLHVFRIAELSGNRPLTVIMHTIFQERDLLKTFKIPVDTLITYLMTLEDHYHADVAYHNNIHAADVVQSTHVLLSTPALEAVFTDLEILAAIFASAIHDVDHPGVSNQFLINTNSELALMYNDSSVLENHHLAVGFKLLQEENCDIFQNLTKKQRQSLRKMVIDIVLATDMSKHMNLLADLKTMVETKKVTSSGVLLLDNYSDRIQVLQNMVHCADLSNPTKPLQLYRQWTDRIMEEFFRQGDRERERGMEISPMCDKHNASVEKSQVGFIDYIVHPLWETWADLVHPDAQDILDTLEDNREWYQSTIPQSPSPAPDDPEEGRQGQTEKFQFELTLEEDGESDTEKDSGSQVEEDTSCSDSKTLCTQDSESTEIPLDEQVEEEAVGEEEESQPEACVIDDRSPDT

CCCCCCCCCCCCCCCCCCCCCC(=O)Nc1ccn([C@@H]2O[C@H](CO)[C@@H](O)[C@@H]2O)c(=O)n1 [ENOCITABINE]
> 30 µM: all assays above
